Source: patent US9487508B2, “SGC stimulators” (IRONWOOD PHARMACEUTICALS, INC., priority 2012, dated 2016)

Assays:
[1] = biological target: T1, Human soluble guanylate cyclase enzyme (hsGC) (Homo sapiens, UniProt Q02108+Q02153); assay: Purified human sGC enzyme activity assay (without SNP); assay type: biochemical; conditions: 30 μM compound, fold change of specific activity vs DMSO control
T1 construct: purchased Enzo Inc. ALX-201-177
T1 sequence (Q02153 1-619): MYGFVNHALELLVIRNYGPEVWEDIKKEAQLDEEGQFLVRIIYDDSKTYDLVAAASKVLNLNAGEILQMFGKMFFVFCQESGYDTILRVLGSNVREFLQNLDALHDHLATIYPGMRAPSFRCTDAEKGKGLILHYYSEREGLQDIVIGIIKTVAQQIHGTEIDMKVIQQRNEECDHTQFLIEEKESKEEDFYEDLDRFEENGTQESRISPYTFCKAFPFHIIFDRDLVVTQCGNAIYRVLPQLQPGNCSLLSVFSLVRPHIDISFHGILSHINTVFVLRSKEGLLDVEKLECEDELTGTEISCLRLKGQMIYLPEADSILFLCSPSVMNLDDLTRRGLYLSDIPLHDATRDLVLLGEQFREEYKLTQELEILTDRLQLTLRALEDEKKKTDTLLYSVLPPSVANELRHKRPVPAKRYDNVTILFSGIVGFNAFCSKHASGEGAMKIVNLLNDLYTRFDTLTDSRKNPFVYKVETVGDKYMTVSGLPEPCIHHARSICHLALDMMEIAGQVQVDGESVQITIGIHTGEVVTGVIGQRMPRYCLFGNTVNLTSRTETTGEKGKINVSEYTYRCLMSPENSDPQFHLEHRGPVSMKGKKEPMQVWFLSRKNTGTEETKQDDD
T1 sequence (Q02108 1-690): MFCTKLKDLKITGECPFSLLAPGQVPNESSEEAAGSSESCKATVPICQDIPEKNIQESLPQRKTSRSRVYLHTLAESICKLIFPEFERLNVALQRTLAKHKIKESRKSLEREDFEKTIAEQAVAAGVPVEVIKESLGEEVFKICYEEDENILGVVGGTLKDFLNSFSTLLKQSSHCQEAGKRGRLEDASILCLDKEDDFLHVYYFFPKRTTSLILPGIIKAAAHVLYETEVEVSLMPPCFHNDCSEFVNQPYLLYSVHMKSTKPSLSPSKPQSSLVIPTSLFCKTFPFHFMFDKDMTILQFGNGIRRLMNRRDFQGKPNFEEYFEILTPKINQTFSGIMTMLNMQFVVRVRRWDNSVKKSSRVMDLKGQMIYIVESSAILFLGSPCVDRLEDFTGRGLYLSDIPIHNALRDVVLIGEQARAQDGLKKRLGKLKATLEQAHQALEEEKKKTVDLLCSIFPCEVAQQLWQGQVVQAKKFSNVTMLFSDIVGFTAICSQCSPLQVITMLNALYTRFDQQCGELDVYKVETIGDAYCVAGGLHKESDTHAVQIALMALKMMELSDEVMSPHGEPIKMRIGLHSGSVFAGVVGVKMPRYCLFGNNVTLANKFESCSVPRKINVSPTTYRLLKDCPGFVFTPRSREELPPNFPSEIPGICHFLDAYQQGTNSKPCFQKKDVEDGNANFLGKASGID
Procedure: Human soluble guanylate cyclase enzyme (hsGC) obtained from Enzo Inc. (P/N: ALX-201-177) was used to evaluate the activity of test compounds. The assay reactions contained 0.1 M Tris (pH 8.0), 0.5 mg/mL BSA (pH 8.0), 2 mM DTT, 2 mM MgCl2, 300 μM GTP, 1 mM 3-isobutyl-1-methylxanthine (IBMX) and 5 ng human soluble guanylate cyclase enzyme. Test compounds in DMSO were then added (2 μL, 10 or 30 μM final concentration) and incubated (water, 200 μL, 96-well plate format) at 37° C. for 30 minutes. The controls were carried out using 2 μL DMSO. After the 30 minute incubation, the reaction was stopped with the addition of 200 μL of cold methanol. The plate was then centrifuged at 3,200 rpm for 10 minutes at room temperature. Supernatants (200 μL) were collected and transferred to a new 96 well plate for analysis by HPLC LC/MS/MS.
An 8 point cGMP (Sigma-Aldrich P/N: G6129) standard curve was prepared in assay buffer ranging from 0.156-20 μM. Samples for the cGMP standard curve were then diluted with an equal volume of methanol resulting in final cGMP concentrations of 0.078-10 μM.
The cGMP standard curve was generated using GraphPad Prism Software.
Calculations: Specific Activity was determined by the amount of cGMP formed (nmoles) per mg of sGC per min. Enzyme “fold-change” was calculated by dividing Specific Activity for test compounds by Specific Activity of DMSO controls.

Thoracic aortic rings = Thoracic aortic rings assay (Example 5); set-up: species or system Sprague-Dawley rats; conditions: rings contracted with 100 ng/mL phenylephrine
Procedure: Thoracic aortic rings were dissected from anesthetized (isoflurane) male Sprague-Dawley rats weighing 275-299 g. Tissues were immediately transferred to ice-cold Krebs-Henseleit solution, which had been aerated with 95% O2 and 5% CO2 for 30 minutes. Following removal of connective tissue, aortic sections were cut into 4 rings (˜2 mm each) and suspended on 2 L-shaped hooks, with one hook fixed at the bottom of the tissue bath (Schuler Organ Bath, Harvard Apparatus) and the other connected to a force transducer (F30 Force Transducer, Harvard Apparatus). Baths contained Krebs Henseleit solution (10 mL) heated to 37° C. and aerated with 95% O2 and 5% CO2. Rings were brought to an initial tension of 0.3-0.5 g and gradually raised to a resting tension of 1.0 g over 60 minutes. Rings were rinsed with Krebs Henseleit solution (heated to 37° C. and aerated with 95% 02 and 5% CO2) at 15 minute intervals until a stable baseline was obtained. Rings were considered to be stable after a resting tension of 1.0 g was maintained (for approximately 10 minutes) without need for adjustment. Rings were then contracted with 100 ng/mL phenylephrine by adding 100 uL of a 10 µg/mL phenylephrine stock solution. Tissues achieving a stable contraction were then treated in a cumulative, dose dependent manner with test compounds prepared in dimethylsulfoxide (DMSO). In some cases, tissues were rinsed three times over a 5 minute period with Krebs-Heinseleit's solution (heated to 37° C. and aerated with 95% 02 and 5% CO2), allowed to stabilize at baseline, and then used for characterization of other test articles or DMSO effects. All data were collected using the HSE-ACAD software provided by Harvard Apparatus. Percent relaxation effects were calculated in Microsoft Excel using the recorded tension value of 100 ng/mL phenylephrine treatment as 0% inhibition and treatment with 100 μM 3-isobutyl-1-methylxanthine as 100% inhibition. EC50 values were calculated from concentration-response curves generated with GraphPad Prism Software.
As an alternative thoracic aortic rings assay, the procedure of Example 5 was used except that percent relaxation effects were calculated in Microsoft Excel using the recorded tension value of 100 ng/mL phenylephrine treatment as 0% inhibition and, after washing the tissue with buffer, the original resting tension of the tissue was used as 100% inhibition.
The biological data for some of the compounds of Formula I or Formula Ib, in comparison with the known compound, BAY 41-2272, as the reference compound, determined by the thoracic aorta ring assay of Example 5 are presented in Table 6 below.

Enzyme Activity (increase at 30 μM without SNP) [1]: C (C = 5 to <10 fold increase)
EC50 (Thoracic aortic rings; Rattus norvegicus, read-out: Aortic Ring EC50): < 2000 nM
SMILES: Nc1ccnc(-n2cc(-c3ncco3)c(Cc3ccccc3F)n2)n1 [Compound I-2]
Aortic Ring Percent Relaxation at 1 μM (Thoracic aortic rings; 1 μM, resting tension = 100%): E (E = 60 or <80%)
Aortic Ring Percent Relaxation at 3 μM (Thoracic aortic rings; 3 μM, resting tension = 100%): F (F = 80 to <100%)
Aortic Ring Percent Relaxation at 10 μM (Thoracic aortic rings; 10 μM, resting tension = 100%): G (G = 100 to <120%)
